Measured values: patent US6046219A, “Method for the treatment of conditions mediated by collagen formation together with cell proliferation by application of inhibitors of protein hydroxylation” (Cornell Research Foundation, Inc., priority 1997, dated 2000)
“Also recorded” adds a separate entry of the source.

Columns and labels:
Format in all cases: cell-based
type I procollagen = assay: Type I procollagen secretion by SMC; details: human SMC, FIG. 6b
Protocol: (§1) Type III collagen biosynthesis (FIG. 6a) was assessed by a commercial radioimmunoassay using a monoclonal antibody to the N-terminal propeptide of type III procollagen. Plasminogen activator inhibitor-1 ("PAI-1") activity was measured by a standard enzymatic method. Type I collagen biosynthesis (FIG. 6b) was assessed by routine Western blot using a monoclonal antibody to the C-terminal propeptide of type I procollagen.
SMC or MRC-5 cells (3-5×10^6 cells/35 mm well), incubated in serum-free DMEM containing 50 μg/ml sodium ascorbate and 20 μg/ml β-aminopropionitrile, are exposed for 24 hours to increasing concentrations of hydroxypyridones. After centrifugation, to clear any cellular debris, these supernatants are used to determine the levels of type I and III procollagens, using commercially available radioimmunoassays (Incstar and Behringwerke, respectively).
Human SMC (3-5×10^5 cells/35 mm well), grown to confluency and incubated in serum-free DMEM containing 50 μg/ml sodium ascorbate and 20 μg/ml β-aminopropionitrile, were exposed for 24 hours to increasing concentrations of test compounds. […] Type I procollagen biosynthesis also was quantified by Western analysis in the following manner. […] Immunoblots were scanned with a UMAX UC630 flatbed scanner and quantified densitometrically using standard software.

[1] = test system: plasminogen activator inhibitor-1 (PAI-1); assay: Plasminogen activator inhibitor assay, SMC supernatants; details: human SMC, FIG. 6
Protocol: as §1
Supernatants of human SMC incubated with the hydroxypyridone L-mimosine under serum-free conditions (to avoid plasma-derived inhibitors) were tested for their ability to inhibit a standard amount of urokinase-type plasminogen activator (uPA) in the presence of plasminogen and the fluorometric peptide plasmin substrate d-Val-Leu-Lys-aminomethylcoumarin (Enzyme Systems, Livermore, Calif.). Inhibition of plasmin generation was compared to a standard curve of human PAI-1 (American Diagnostica, Greenwich, Conn.) to yield PAI-1 activity.

[2] = test system: deoxyhypusyl hydroxylase activity in human B-lymphocytes; assay: Cellular deoxyhypusyl hydroxylase in human B-lymphocytes; details: FIG. 3a
Protocol: (§2) In FIG. 3a, the effect on the human enzyme was determined by measuring in proliferating cultured B-lymphocytes the covalent incorporation of tritiated spermidine-derived label into cellular protein, after standard hydrolysis, chromatographic separation of amino acids, and expression of the results relative to uninhibited controls. In FIG. 3b, a standard chromatographic elution profile is shown as obtained from cultured human smooth muscle cells ("SMC"), grown out of coronary atherosclerotic lesions and metabolically labeled in the absence and presence of L-mimosine. […]
(§3) The cellular conversion of the precursor deoxyhypusine to the hydroxylated hypusine in cells was examined, after preincubation with the inhibitor for 60 minutes, by labeling the human cells with ^3 H-spermidine (5 μCi/ml) in 25 cm^2 flasks (1×10^6 cells/flask) for 24 hours prior to cell lysis, precipitation with 10% TCA containing 1 mM each of putrescine, spermidine, and spermine, and hydrolysis in 6 N HCl at 110° C. for 16 hours. The hydrolysate was analyzed for labeled amino acids on an amino acid analyzer by published methods (Park et al., J. Biol. Chem., 257:7217-7222 (1982), which is hereby incorporated by reference). The retention of purified hypusine and deoxyhypusine was determined from standards.

[3] = test system: human SMC from fibroproliferative vascular lesions; assay: Cell proliferation: DNA synthesis (3H-thymidine) in SMC; details: for reversibility of cytostatic effect upon withdrawal: corrected for cell number
Protocol: The effect of the structural hydroxypyridone analog kojic acid is shown for comparison. Serum-stimulated DNA synthesis in SMC was determined by a 4-hour pulse of ^3 H-thymidine given 20 hours after treatment with L-mimosine and kojic acid (filled symbols). Identically treated, but unlabeled cells cultured in parallel, at that time point were washed and returned to fresh culture media without inhibitor for an additional 20 hours prior to otherwise identical labeling with ^3 H-thymidine (open symbols). Data is expressed as ^3 H-thymidine incorporated per cell to compensate for the reduced cell number in the wake of inhibitor treatment.
Inhibition of DNA synthesis was examined by semiautomated methods. SMC were plated at 1×10^4 cells/well in 96-well microtiter plates at least 24 hours prior to the assay. Agents were introduced into normal serum-containing growth media for 20 hours before the cells were pulsed with ^3 H-thymidine (1 μCi/ml) for 4 hours. Cells were collected with a cell harvester and the DNA-incorporated label determined by scintillation counting (Betaplate; Wallac, Inc., Gaithersburg, Md.) (n=6 per point).

[4] = test system: deoxyhypusyl hydroxylase activity in human smooth muscle cells; assay: Cellular deoxyhypusyl hydroxylase in human smooth muscle cells; details: FIG. 3b
Protocol: as §2, §3

Compound: N[C@@H](Cn1ccc(=O)c(O)c1)C(=O)O [L-Mimosine]
- inhibition of secretion of procollagen type I (type I procollagen): potent inhibitor; also recorded: selectively suppressive effect
- secretion of plasminogen activator inhibitor-1 (PAI-1) [1]: not affected; also recorded: not on release of plasminogen activator inhibitor-1
- inhibition of deoxyhypusyl hydroxylase activity [2]: inhibit deoxyhypusyl hydroxylase activity
- non-specific or toxic effects ([3]; FIGS. 6, 7): did not result from non-specific or toxic effects
- reversibility of cytostatic effect upon withdrawal ([3]; FIG. 7, listed as L-mimosine): non-toxic reversibility
- reversibility of cytostatic effect upon withdrawal ([3]; FIG. 7, listed as mimosine): fully reversible
- rebound effect on DNA synthesis ([3]; following inhibitor removal and additional 24-hour recovery): marked rebound effect
- inhibition of DNA synthesis ([3]; lesion-derived SMC, initial 24-hour treatment, FIG. 7): DNA synthesis was inhibited
- reversibility of suppressive effects (collagen secretion, onset of DNA synthesis) ([3]; upon removal of compound): reversible
- inhibition of deoxyhypusyl hydroxylase activity [4]: inhibit deoxyhypusyl hydroxylase activity; also recorded: label is shifted to the unhydroxylated precursor of Hps
